The results in this text go back to patent US8017400B2 (priority 2005, dated 2011).

The target of assay [1] is T1, G95A mutant ALS (Oryza sativa subsp. japonica, UniProt Q6K2E8, G95A).
T1 construct: made in house; host or cells: Escherichia coli (pGEX-2T)
The assay is described as follows: Inhibition of expressed GST fusion G95A mutant ALS activity by herbicides. The assay is classed as biochemical, rice. As to the method:
(§1) The Escherichia coli transformed with pGEX-2T having a G95A mutant ALS gene prepared in Example 6 and the same transformed with pGEX-2T (see WO02/44385A1) having a wild-type ALS gene were each shake-cultured (preculture) in 2 ml of LB liquid medium containing ampicillin at 27° C. They were each cultured in 250 ml of LB liquid medium containing ampicillin using 1 ml of the preculture solution. After overnight culture, 1 mM IPTG was added and they were further cultured for 3 to 4 hours. Thus, the expression of the GST fusion protein was induced. In addition, microbial bodies were washed with an ALS extraction buffer (potassium phosphate buffer (pH 7.5) containing 30% glycerol and 0.5 mM MgCl2) and then stored at −80° C.
(§2) Preparation and purification of ALS from Escherichia coli were performed by the following method. First, a pellet of the Escherichia coli stored at −80° C. was suspended in an ALS extraction buffer. (2.5 ml of the ALS extraction buffer was added to the pellet obtained from 50 ml of the culture solution.) The suspension was subjected to ultrasonication (Heat Systems-Ultrasonics, Sonicator W-225R, micro chip, output control 8, intervals of approximately 1 second, and twice every 40 seconds), and then centrifuged at 15000×g and 4° C. for 20 minutes, thereby obtaining the supernatant as a crude enzyme solution. Therefore, a crude enzyme solution of the GST fusion G95A mutant ALS protein and a crude enzyme solution of the GST fusion wild-type ALS protein were prepared.
(§3) A reaction solution to be used for the reaction for activity determination was prepared by mixing GST fusion ALS to be subjected to activity determination with a solution comprising 20 mM sodium pyruvate, 0.5 mM thiamine pyrophosphate, 0.5 mM MgCl2, 10 μM flavin adenine dinucleotide, 10 mM valine (added for the inhibition of activity of ALS derived from Escherichia coli), and 20 mM potassium phosphate buffer (pH 7.5). 0.5 ml of the reaction solution was used. The reaction was performed at 37° C. for 30 minutes after addition of GST fusion ALS to be subjected to activity determination. The reaction was stopped by the addition of 0.05 ml of 6 N sulfuric acid. After the completion of the reaction, the reaction solution was subjected to incubation at 37° C. for 60 minutes, so that acetolactic acid contained in the reaction solution was converted into acetoin. Subsequently, to quantify acetoin contained in the reaction solution, 0.05 ml of 0.5% (w/v) creatine and 0.05 ml of 5% (w/v) α-naphthol dissolved in 2.5 N sodium hydroxide were added, followed by 10 minutes of incubation at 37° C. Acetoin was then quantified by color comparison of the absorbance at 525 nm of the reaction solution, thereby evaluating ALS activity. The value at reaction time 0 (hours) was used as a control value. When the herbicide inhibition activity was examined, aqueous solutions of bispyribac-sodium and pyrithiobac-sodium were each prepared at a 100-fold concentration and then added to the reaction solution. In the case of pyriminobac, chlorsulfuron, bensulfuron-methyl, imazaquin, and imazapyr having low water solubility, an acetone solution was prepared for each thereof at a 100-fold concentrations and then added to the reaction solution.
(§4) The inhibition activity of various ALS inhibitors against the thus expressed G95A mutant ALS was examined.

Assay [2] relates to G95A mutant ALS. The description is as above. The assay is classed as biochemical, rice. The following applies: 50% inhibitory concentration against G95A mutant ALS to that against wild-type ALS. The protocol: as §1, §2, §3, §4
Assay [3] has as its target T2, wild-type ALS (GST fusion wild-type ALS) (Oryza sativa subsp. japonica, UniProt Q6K2E8).
T2 construct: made in house; host or cells: Escherichia coli (pGEX-2T)
The assay is described as follows: Inhibition of expressed GST fusion wild-type ALS activity by herbicides. The assay is classed as biochemical, rice. The protocol:
as §1, §2, §3
The 50% inhibitory concentration of each herbicide against G95A mutant ALS was compared with the 50% inhibitory concentration of the herbicide against wild-type ALS (GST fusion wild-type ALS), so that the herbicide resistance ratio (RS ratio) of the 50% inhibitory concentration against G95A mutant ALS to that against wild-type ALS was calculated. The RS ratios in the cases of bispyribac-sodium, pyrithiobac-sodium, and pyriminobac were 16,000:1 or more, 9, 100:1 or more, and 13,000:1 or more, respectively. In contrast, the RS ratios in the cases of chlorsulfuron, bensulfuron-methyl, imazaquin, and imazapyr were 0.19:1, 40:1, 0.82:1, and 4.9:1, respectively. […]

For assay [4], the system named is clone plants of the G95A-1 line and the G95A-2 line. The assay is described as follows: Bispyribac-sodium resistance test on rooting medium, G95A lines. The following applies: G95A-1 line at 1, 5, 10, 20 μM, G95A-2 line at 5 μM; observed 1 and 2 weeks after transplantation. Format: in vivo, rice. The protocol:
(§5) The two lines of plants selected by the above method were designated the G95A-1 line and the G95A-2 line. Since they were albino plants, they were cultured on MS medium and then multiplied by division. To test the degree of resistance to bispyribac-sodium, clone plants divided from the G95A-1 line were transplanted on rooting media (Table 3) containing 0 μM, 1 μM, 5 μM, 10 μM, or 20 μM bispyribac-sodium (FIG. 3A: on the left in each Petri dish, observed as white because they were albino). Clone plants of the G95A-2 line (the number of these clone plants is a few) were tested using 5 μM bispyribac-sodium alone. Plants of wild-type Taichung 65 in 2 weeks after seeding were used as members of a control group (FIG. 3, on the right side in each Petri dish). Plant in 1 week (FIG. 3B) after transplantation and plant in 2 weeks (FIG. 3C) after transplantation were observed.

Assay [5] has as its system plants of wild-type Taichung 65. The assay is described as follows: Bispyribac-sodium resistance test on rooting medium, wild-type control. The assay is classed as in vivo, rice. The following applies: wild-type Taichung 65, 2 weeks after seeding; observed 1 and 2 weeks after transplantation. The protocol: as §5
Setting [6] is: 50% inhibitory concentration (μM) G95A mutant, G95A mutant ALS (Table 5).
[7] abbreviates: read-out: inhibition % at 100 μM, Average, G95A mutant ALS, average of determinations.
[8] abbreviates: read-out: inhibition % at 100 μM, G95A mutant ALS, single determinations (First to Third).
[9] abbreviates: read-out: inhibition activity at 100 μM, G95A mutant ALS.
Where [10] appears, read: 50% inhibitory concentration, Average, G95A mutant ALS, average of determinations (Table 4).
Setting [11] is: 50% inhibitory concentration, G95A mutant ALS, single determinations (First to Sixth).

“And” between values parts separate entries of the source, which are not always exact repeats. Identical values can stand only once. Like-named read-outs stand apart in the source and are kept apart here. Where only a bound is given, the exact number is not on record here.

T1 sequence (Q6K2E8 44-644 G95A): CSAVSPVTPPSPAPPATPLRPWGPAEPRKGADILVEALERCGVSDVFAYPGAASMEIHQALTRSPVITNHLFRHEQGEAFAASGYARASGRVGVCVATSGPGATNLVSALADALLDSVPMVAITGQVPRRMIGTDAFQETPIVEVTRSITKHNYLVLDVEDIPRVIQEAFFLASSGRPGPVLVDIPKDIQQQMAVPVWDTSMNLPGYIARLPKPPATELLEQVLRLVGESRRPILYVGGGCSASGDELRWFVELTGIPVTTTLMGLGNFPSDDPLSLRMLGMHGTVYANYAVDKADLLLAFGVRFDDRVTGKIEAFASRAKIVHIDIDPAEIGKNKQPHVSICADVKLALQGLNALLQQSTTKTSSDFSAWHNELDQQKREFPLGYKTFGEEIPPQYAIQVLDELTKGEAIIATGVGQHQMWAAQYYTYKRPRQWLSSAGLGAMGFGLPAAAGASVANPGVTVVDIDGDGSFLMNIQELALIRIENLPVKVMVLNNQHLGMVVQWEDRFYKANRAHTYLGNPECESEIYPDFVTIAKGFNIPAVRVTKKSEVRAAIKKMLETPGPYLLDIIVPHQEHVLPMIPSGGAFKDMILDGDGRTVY
T2 sequence (Q6K2E8 44-644): as the sequence (Q6K2E8 44-644 G95A) above, with A52G counted along it

`CON=C(C)c1cccc(Oc2nc(OC)cc(OC)n2)c1C(=O)O` (mixture of isomers) [Pyriminobac, pyriminobac]: the IC50 was > 100 µM against G95A mutant ALS [1] (setting [6]) and 0.008 µM in assay [3]. Also, the “inhibition % at 100 μM” value against G95A mutant ALS [1] (G95A mutant ALS, single determinations (First to Third), listed as PM) was 23.3% and 29.2%. Besides, the inhibition at 100 µM on G95A mutant ALS [1] (setting [7]) is 25.1%; on G95A mutant ALS [1] (setting [8]) it was 22.9%; at G95A mutant ALS [1] (setting [9]), ≤ 50%. In addition, the “Resistance ratio (RS ratio)” value is listed as >13000 with G95A mutant ALS [2] and ≥ 13,000 in the assay on G95A mutant ALS [2] (listed as pyriminobac).
On to `COC(=O)c1ccccc1CS(=O)(=O)NC(=O)Nc1nc(OC)cc(OC)n1` [Bensulfuron-methyl, bensulfuron-methyl], for which the 50% inhibitory concentration (IC50) on G95A mutant ALS [1] (setting [6]) is 0.28 µM; at G95A mutant ALS [1] (setting [10]) it was 0.278 µM; at G95A mutant ALS [1] (setting [11]), 0.268 µM and 0.294 µM and 0.271 µM; in assay [3] it was 0.007 µM. In addition, the “inhibition activity against G95A mutant ALS (in words)” value (shortened to “inhibition activity”) on G95A mutant ALS [1] (G95A mutant ALS) is reported as “exerted inhibition activity”. The “Resistance ratio (RS ratio)” value in the assay on G95A mutant ALS [2] stood at 40.
In the case of `COc1cc(OC)nc(Oc2cccc(Oc3nc(OC)cc(OC)n3)c2C(=O)[O-])n1.[Na+]` [Bispyribac-sodium, bispyribac-sodium], the IC50 against G95A mutant ALS [1] (setting [6]) is > 100 µM; in assay [3], 0.0063 µM. Moreover, the “inhibition % at 100 μM” value against G95A mutant ALS [1] (G95A mutant ALS, single determinations (First to Third), listed as BS) was 16.8% and 18.4%. Moreover, the inhibition at 100 µM at G95A mutant ALS [1] (setting [7]) is 17.7%; at G95A mutant ALS [1] (setting [8]) it was 17.9%; at G95A mutant ALS [1] (setting [9]), ≤ 50%. In addition, the “Resistance ratio (RS ratio)” value with G95A mutant ALS [2] is given as >16000; in the assay with G95A mutant ALS [2] (listed as bispyribac-sodium), ≥ 16,000. For the same compound, the “resistance / rooting on bispyribac-sodium-containing rooting medium” value in assay [4] was “exerted resistance, with new rooting observed”. Besides, the “effect on plants on bispyribac-sodium-containing rooting medium” value in assay [5] is “all the wild-type plants of the control group withered”.
With `COc1nc(C)nc(NC(=O)NS(=O)(=O)c2ccccc2Cl)n1` [Chlorsulfuron, chlorsulfuron], the concentration for half-maximal inhibition (IC50) on G95A mutant ALS [1] (setting [6]) is 0.0025 µM; at G95A mutant ALS [1] (setting [10]), 0.0025 µM; against G95A mutant ALS [1] (setting [11]) it was 0.0019 µM and 0.0023 µM and 0.003 µM and 0.0027 µM and 0.0028 µM and 0.0021 µM; in assay [3], 0.013 µM. For the same compound, the “inhibition activity” value against G95A mutant ALS [1] (G95A mutant ALS) is on record as “strong”. The “Resistance ratio (RS ratio)” value with G95A mutant ALS [2] turned out to be 0.19.
For the compound `CC(C)C1(C)N=C(c2ncccc2C(=O)O)NC1=O` (stereo not shown) [Imazapyr, imazapyr], the concentration for half-maximal inhibition (IC50) was 47 µM against G95A mutant ALS [1] (setting [6]); 46.8 µM against G95A mutant ALS [1] (setting [10]); 46 µM and 44.6 µM and 49.7 µM at G95A mutant ALS [1] (setting [11]); 9.6 µM in assay [3]. For the same compound, the “inhibition activity” value against G95A mutant ALS [1] (G95A mutant ALS) was “exerted inhibition activity”. The “Resistance ratio (RS ratio)” value with G95A mutant ALS [2] is given as 4.9.
For the compound `CC(C)C1(C)N=C(c2nc3ccccc3cc2C(=O)O)NC1=O` (stereo not shown) [Imazaquin, imazaquin], the IC50 is 1.8 µM against G95A mutant ALS [1] (setting [6]); 1.8 µM at G95A mutant ALS [1] (setting [10]); 1.65 µM and 1.89 µM and 1.85 µM on G95A mutant ALS [1] (setting [11]); 2.2 µM in assay [3]. Besides, on G95A mutant ALS [1] (G95A mutant ALS), the “inhibition activity” value is recorded as “exerted inhibition activity”. Moreover, the “Resistance ratio (RS ratio)” value in the assay on G95A mutant ALS [2] was found to be 0.82.
Consider `COc1cc(OC)nc(Sc2cccc(Cl)c2C(=O)[O-])n1.[Na+]` [Pyrithiobac-sodium, pyrithiobac-sodium], for which the IC50 on G95A mutant ALS [1] (setting [6]) was > 100 µM; in assay [3], 0.011 µM. Also, on G95A mutant ALS [1] (G95A mutant ALS, single determinations (First to Third), listed as PS), the “inhibition % at 100 μM” value was 12.8% and 18.1%. For the same compound, the inhibition at 100 µM on G95A mutant ALS [1] (setting [7]) was 14.3%; at G95A mutant ALS [1] (setting [8]), 12.1%; on G95A mutant ALS [1] (setting [9]) it was ≤ 50%. The “Resistance ratio (RS ratio)” value in the assay with G95A mutant ALS [2] was >9100.

The IC50 is the point on the concentration scale where inhibition reaches its midpoint. Read a low IC50 as greater potency. As usually defined, the inhibition is the change of the read-out against control, counted positive when it falls.
